Data as given in paper PMC6287471 (International Journal for Parasitology: Drugs and Drug …, 2018).
Structures can show the parent of a compound that is named as a salt.

Legend:
Hco-ACC-2 WT channel [1] = molecular target: T1, Hco-ACC-2 WT channel (Haemonchus contortus, UniProt A0A219KWM7); conditions: wild-type channel; partial = maximum response lower than 100% of ACh
T1 sequence (A0A219KWM7 18-443): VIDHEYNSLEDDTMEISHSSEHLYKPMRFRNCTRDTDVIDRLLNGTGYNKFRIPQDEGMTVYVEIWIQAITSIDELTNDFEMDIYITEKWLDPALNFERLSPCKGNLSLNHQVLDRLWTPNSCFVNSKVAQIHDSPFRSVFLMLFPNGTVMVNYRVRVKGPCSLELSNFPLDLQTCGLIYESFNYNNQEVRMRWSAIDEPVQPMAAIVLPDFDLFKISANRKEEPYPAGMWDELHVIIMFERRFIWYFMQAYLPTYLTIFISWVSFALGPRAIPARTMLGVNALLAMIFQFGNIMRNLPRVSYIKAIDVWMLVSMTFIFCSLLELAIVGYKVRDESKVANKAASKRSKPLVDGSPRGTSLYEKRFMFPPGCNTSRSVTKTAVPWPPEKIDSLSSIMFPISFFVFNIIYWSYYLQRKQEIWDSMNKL

Hco-ACC-2 WT channel [2] = molecular target: T1, Hco-ACC-2 WT channel; experiment: cell-based; conditions: EC50 ± standard error, n ≥ 5 oocytes

Compound	full or partial agonist (Hco-ACC-2 WT channel [1])	EC50 (Hco-ACC-2 WT channel [2]) [µM]
CC(=O)OCC[N+](C)(C)C [Acetylcholine]	full agonists	
C[N+](C)(C)CCOC(N)=O [Carbachol, Carbamoylcholine Chloride]	partial agonists	43 ± 4
C[N+](C)(C)CCO [Choline, Choline Chloride]		1280 ± 35
c1ccc([C@H]2CN3CCSC3=N2)cc1 [Levamisole, Levamisole Hydrochloride]	partial agonists	98 ± 4
CC(=O)OC(C)C[N+](C)(C)C (stereo not drawn) [Methacholine, Acetyl-β-methylcholine Chloride]	full agonists	100 ± 2
CN1CCCN=C1/C=C/c1cccs1 [Pyrantel, Pyrantel Citrate Salt]	partial agonists	72 ± 4
CC(C[N+](C)(C)C)OC(N)=O (stereo not drawn) [Urecholine, Carbamyl-β-methylcholine chloride]	partial agonists	747 ± 22
